Data as given in ChEMBL document CHEMBL1157346, “Synthesis and antiproliferative activity in vitro of novel (2-butynyl)thioquinolines” (2008).
≈ marks a conversion by molar mass, not a printed value. Calls of active or inactive are those of the source. The calls are words filed in the database; no cut-off is given here.

Legend:
Format in all cases: functional
P388 = assay: Cytotoxicity against mouse P388 cells after 72 hrs by MTT assay; conditions: for IC50: P388, 72 h, read-out: ID50 (the source's name)
CCRF-CEM = assay: Cytotoxicity against human CCRF-CEM cells after 72 hrs by SRB assay; conditions: for IC50: read-out: ID50 (the source's name)
B16 = assay: Cytotoxicity against mouse B16 cells after 72 hrs by SRB assay; conditions: for IC50: B16, 72 h, read-out: ID50 (the source's name)
[1] = (§1) Cytotoxicity against human SW707 cells after 72 hrs by SRB assay; conditions: SW707, 72 h, read-out: ID50 (the source's name)
SW707 = assay: as §1

Compound	IC50 (P388) [µg/mL]	IC50 (CCRF-CEM) [µg/mL]	IC50 (B16) [µg/mL]	IC50 [1] [µg/mL]	Activity (B16)	Activity (P388)	Activity (CCRF-CEM)	Activity (SW707)
OCC#CCSc1cnc2ccccc2c1[Se]CC#CCBr	1.6 (≈ 3.64 µM)	0.2 (≈ 0.455 µM)	4.6 (≈ 10.5 µM)	2.8 (≈ 6.37 µM)				
C#CCSc1cnc2ccccc2c1SCC#CCO	4 (≈ 13.4 µM)	3.2 (≈ 10.7 µM)	54.7 (≈ 183 µM)	42.6 (≈ 142 µM)				
CSc1c(SCC#CCO)cnc2ccccc12	32.3 (≈ 117 µM)	13.9 (≈ 50.5 µM)		69.3 (≈ 252 µM)	inactive			
COc1c(SCC#CCO)cnc2ccccc12	23.2 (≈ 89.5 µM)	22 (≈ 84.8 µM)		67.4 (≈ 260 µM)	inactive			
OCC#CCSc1cnc2ccccc2c1[Se]CC#CCO	4.1 (≈ 10.9 µM)	1.4 (≈ 3.72 µM)	4.3 (≈ 11.4 µM)	26.6 (≈ 70.7 µM)				
C#CC[Se]c1c(SCC#CCO)cnc2ccccc12	2.5 (≈ 7.22 µM)	1.9 (≈ 5.49 µM)	6.8 (≈ 19.6 µM)	3.8 (≈ 11 µM)				
CSc1cnc2ccccc2c1[Se]CC#CCO	2.6 (≈ 8.07 µM)	0.5 (≈ 1.55 µM)	4.2 (≈ 13 µM)	3.4 (≈ 10.5 µM)				
C#CCSc1cnc2ccccc2c1SCC#CC[Se]c1c(SCC#CC)cnc2ccccc12	30.7 (≈ 53.5 µM)	30.3 (≈ 52.8 µM)		43 (≈ 75 µM)	inactive			
OCC#CCSc1cnc2ccccc2c1SCC#CCO	5.7 (≈ 17.3 µM)	2.6 (≈ 7.89 µM)	42.2 (≈ 128 µM)	32 (≈ 97.1 µM)				
OCC#CCSc1cnc2ccccc2c1Cl	2.4 (≈ 9.1 µM)	4.1 (≈ 15.5 µM)		6.2 (≈ 23.5 µM)	inactive			
OCC#CCSc1cnc2ccccc2c1SCC#CCBr	43.2 (≈ 110 µM)	0.6 (≈ 1.53 µM)	4.9 (≈ 12.5 µM)	36.2 (≈ 92.3 µM)				
C[Se]c1c(SCC#CCO)cnc2ccccc12	19.8 (≈ 61.4 µM)	2.1 (≈ 6.52 µM)	5.8 (≈ 18 µM)	3.5 (≈ 10.9 µM)				
CSc1cnc2ccccc2c1SCC#CCSc1c(SC)cnc2ccccc12					inactive	inactive	inactive	inactive
C#CCSc1cnc2ccccc2c1[Se]CC#CCO	3.1 (≈ 8.95 µM)	3.2 (≈ 9.24 µM)	3.6 (≈ 10.4 µM)	3.3 (≈ 9.53 µM)				
CSc1cnc2ccccc2c1SCC#CCO	3.1 (≈ 11.3 µM)	2.3 (≈ 8.35 µM)	49.8 (≈ 181 µM)	34.9 (≈ 127 µM)				
C#CCSc1c(SCC#CCO)cnc2ccccc12	13.3 (≈ 44.4 µM)	2.7 (≈ 9.02 µM)			inactive			inactive
C#CCSc1cnc2ccccc2c1SCC#CCSc1c(SCC#C)cnc2ccccc12					inactive	inactive	inactive	inactive
CC#CCSc1cnc2ccccc2c1SCC#CCSc1c(SCC#CC)cnc2ccccc12					inactive	inactive	inactive	inactive
C#CCSc1cnc2ccccc2c1[Se]CC#CCBr	1.2 (≈ 2.93 µM)	0.3 (≈ 0.733 µM)	4.2 (≈ 10.3 µM)	2.2 (≈ 5.38 µM)				
